# Data published in patent US20230060873A1, “COMPOUNDS AND METHODS FOR FORMING ION CHANNELS IN BIOLOGICAL MEMBRANES” (Washington University, priority 2021, published 2023).
# Assays:
# [1] = test system: B. subtilis membrane; test: DiSC3(5) depolarization assay, lariat ethers; assay type: cell-based, Bacillus subtilis; settings: 2 μM compound; 60 mM KCl, NaCl or NMDG-Cl; NMDG-MeSO3 solution; 25° C
# Experimental: Dialkylated lariat ethers LEC6-LEC14 were then tested for their ability to depolarize a B. subtilis membrane using the fluorescent dye 3,3-dipropylthiadicarbocyanine (DiSC3(5)), which undergoes membrane voltage-dependent partitioning between the intracellular and the extracellular medium. FIGS. 23-31 show the time course of the DiSC3(5) fluorescence due to the activity of dialkylated lariat ethers with alkyl chains 6 to 14 carbons in length. The experiment was performed in a NMDG-MeSO3 solution (100 mM NMDG, 10 mM HEPES, pH adjusted to 7.4 with methanesulfonic acid). The events are: t1, addition of dye; t2, addition of B. subtilis; t3, addition of a 2 M KCl or a 2 M NMDG-Cl solution up to a final concentration of 60 mM; t4, addition of dialkylated lariat ether up to 2 μM. Control experiments were performed that were similar to the two previously described experiments, with the exception that additional NMDG-MeSO3 solution without cells was added at timepoint t2. The experiments were normalized relative to the final fluorescence intensity in the control experiments, as described below.
# To conduct the experiments shown in FIGS. 23-31, a 2-mL liquid culture of B. subtilis cells was grown at 37° C. in LB media until OD600=0.600, and then collected by centrifugation at 2000 rpm during 3 min. The bacteria were washed once in NMDG-MeSO3 solution (100 mM NMDG, 10 mM HEPES, pH adjusted to 7.4 with methanesulfonic acid) or dextrose solution (200 mM dextrose, 10 mM Tris, pH adjusted to 7.4 with HCl) depending on the experiment. The centrifugation step was repeated and the bacteria were resuspended until OD600=1.0 in the same solution. The working dye solution was a 200 μM solution of DiSC3(5) (3,3′-dipropylthiadicarbocyanine iodide; Tokyo Chemical Industry) in DMSO. […] After 150 sec (timepoint t3, 250 sec) the fluorescence stabilized to a minimum intensity and 100 μL of 2M NMDG-Cl, 2M NaCl or 2 M KCl solution was added to reach a about 60 mM final concentration of the salt. […] Fluorescence intensity was recorded each second using a Horiba Fluoromax 4 spectrometer (excitation wavelength=640 nm; emission wavelength=670 nm). […] To normalize the fluorescence, experiments in the same conditions but without adding bacteria were performed, normalization was done by dividing the fluorescence by the final fluorescence level of these experiments.
# Cell hyperpolarization (more negatively charged inside the cell) results in an uptake of the dye, while cell membrane depolarization (more positively charged inside the cell) results in a release of the dye. The accumulation of the dye in the interior of the cell can be detected by a decrease in fluorescence due to self-quenching, which enables the dye to be utilized as an indirect reporter of changes in cell membrane voltage. […]
# [2] = test system: B. subtilis cells; test: Lactate dehydrogenase release (resofurin fluorescence), MAcBCE/MAkBCE and controls; assay type: cell-based, Bacillus subtilis; settings: 37° C, potassium lactate/NAD+ solution
# Experimental: A 2 mL liquid culture of transformed B. subtilis cells was grown at 37° C. in LB media supplemented with […] kanamycin, until OD600=0.6. Cells were collected by centrifugation at 2000 rpm over 3 min. The bacterial pellet was washed twice in lactate/NAD^+ solution (95 mM potassium lactate, 10 mM nicotinamide adenine dinucleotide (NAD^+), 10 mM HEPES, pH adjusted to 7.4 with KOH). After the last centrifugation step, the bacteria were resuspended until OD600=1.0 in the lactate/NAD^+ solution, then diluted 100× in the same solution. The working fluorophore solution was a 1 mM of resazurin sodium salt (Alfa Cesar) in water. The experiment was started with 3 mL of lactate/NAD^+ solution in a quartz cuvette, then 3.1 μL of resazurin solution was added (timepoint t1, 50 sec) for a 1 μM final concentration, followed by the addition of 100 μL of the diluted B. subtilis suspension (timepoint t2, 100 sec). After 150 sec (timepoint t3, 250 sec), 10 μL of diaphorase (Worthinton Biochemical Corporation) 10 mg/mL solution was added. The final step involved the addition of 0.62 μL of a 10 mM stock solution of dialkylated diaza lariat ether (LEC10) in TFE (timepoint t4, 400 sec), for a final LEC10 concentration of 2 μM; or 3.1 μL of a 2 mM stock solution of valinomycin in DMSO, for a final valinomycin concentration of 2 μM; or 3.1 μL of a 20 mg/mL stock solution of lysozyme in lactate/NAD^+ solution, for a final lysozyme concentration of 20 μg/mL; or 3.1 μL of 10 mM stock solution of each MAcBCE or MAkBCE compounds in TFE, for final concentrations of 10 μM. Fluorescence intensity was recorded each second using a Horiba Fluoromax 4 spectrometer (λexcitation=550 nm; λemission=583 nm). […] To normalize, the fluorescence intensity was divided by the fluorescence level just before timepoint t4. […]
# Experiments were repeated at least three times per condition. To normalize, the fluorescence intensity was divided by the fluorescence level just before timepoint t4.
# [3] = Planar lipid bilayer ion channel recordings; assay type: biochemical; settings: 2 μM; bilayer clamped at 100 mV; 150 mM KCl, 10 mM HEPES, pH 7.4
# Experimental: Experiments in planar lipid bilayers were performed via a Nanion Orbit-mini planar bilayer system. The planar membranes were formed by painting a 25 mg/mL solution of lipids in n-nonane over the four 50 μm apertures on the chip. The lipids used were asolectin from soybean (Sigma-Aldrich) or a 3:1 w/w mix of 1-palmitoyl-2-oleoyl-sn-glycero-3-phosphoethanolamine (POPE) and 1-palmitoyl-2-oleoyl-sn-glycero-3-phospho-(1′-rac-glycerol) (POPG) (Avanti Polar lipids). The solutions tested were KCl solution (150 mM KCl, 10 mM HEPES, pH adjusted to 7.4 with KOH), NaCl solution (150 mM NaCl, 10 mM HEPES, pH adjusted to 7.4 with NaOH), and a concentrated KCl solution (500 mM KCl, 10 mM HEPES, pH adjusted to 7.4 with KOH). When the appropriate membrane formed, the voltage was clamped at 100 mV or −100 mV, and a stock solution of gramicidin D (Sigma-Aldrich) in DMSO or LEC10 in TFE were added up to the desired concentration. The tested concentration of gramicidin D was 1 nM and 2, 10, 100 and 200 μM were tested for LEC10. Two different temperatures were tested for each condition: 25 and 37° C. The current was recorded over 10 min for the gramicidin test and up to 1 h for the LEC10 test. The data was analyzed with Clampfit 10.7 software (Axon Instruments).
# FIGS. 41 and 42 show the lipid bilayer recordings. Current through the asolectin planar lipid bilayer clamped at 100 mV was recorded in the presence of […] (FIG. 41) and 2 μM LEC10 (FIG. 42). In both cases, the solution was 150 mM KCl, 10 mM HEPES, pH 7.4. […] This lack of unitary channel formation, or even a carrier-like increase of the conductance, precludes an ionophore-like mechanism of ion transport.
compound,measurement,setting,value
CC(C)[C@@H]1NC(=O)[C@H](C)OC(=O)[C@@H](C(C)C)NC(=O)[C@@H](C(C)C)OC(=O)[C@H](C(C)C)NC(=O)[C@H](C)OC(=O)[C@@H](C(C)C)NC(=O)[C@@H](C(C)C)OC(=O)[C@H](C(C)C)NC(=O)[C@H](C)OC(=O)[C@@H](C(C)C)NC(=O)[C@@H](C(C)C)OC1=O [valinomycin],relative DiSC3(5) release in the presence of different cations,[1],only when K^+ was added
same,resofurin fluorescence (LDH release),[2]; 2 μM,no effect
gramicidin D,ion channel activity,[3],unitary channels
lysozyme,resofurin fluorescence (LDH release),[2]; 20 μg/mL,increase in the resofurin fluorescence levels
